Experimental data published in patent US20260184712A1, “Heterocyclic Compounds as ENT Inhibitors and Compounds for Use in the Treatment of Cancers” (iTeos Belgium SA, priority 2022, published 2026).
pIC50: −log10 of the molar value.

Each compound was assayed against T1, human ENT1 (Homo sapiens, UniProt Q99808) (assay: ENT1 binding assay (competition with Sahenta-DY647 on JAR cells)). Conditions: competition with SAHENTA-DY647 binding; IC50 categorized; read-out: Binding Assay IC50.
T1 construct: JAR cells expressing ENT1 were purchased from ATCC; host or cells: JAR cells
T1 sequence (Q99808 1-456): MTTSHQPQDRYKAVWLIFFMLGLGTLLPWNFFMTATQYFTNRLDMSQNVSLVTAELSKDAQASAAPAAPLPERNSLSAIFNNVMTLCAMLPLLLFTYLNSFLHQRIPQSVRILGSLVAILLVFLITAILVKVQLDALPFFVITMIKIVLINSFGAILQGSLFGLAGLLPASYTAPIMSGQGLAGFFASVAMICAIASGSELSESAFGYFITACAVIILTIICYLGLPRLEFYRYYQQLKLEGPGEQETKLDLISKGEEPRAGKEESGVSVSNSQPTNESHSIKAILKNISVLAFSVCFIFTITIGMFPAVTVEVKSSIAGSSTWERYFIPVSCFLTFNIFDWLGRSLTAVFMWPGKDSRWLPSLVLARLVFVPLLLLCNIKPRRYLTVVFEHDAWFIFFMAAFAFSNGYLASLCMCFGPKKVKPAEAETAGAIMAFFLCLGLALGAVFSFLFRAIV
How it was run: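 Fluorescent-tracer displacement: compound incubated with JAR cells 30 min, 4 °C, before Sahenta-DY647 (100 nM) for another 30 min, 4 °C, in Hepes-buffered HBSS with 0.1% BSA. Bound tracer read at 670 nm after washes; IC50 from four-parameter fit, reported as mean of pIC50 values.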

Structure (SMILES) | pIC50
C[C@H]1O[C@@H](n2cnc3c(OCCc4ccc(OCF)nc4)ncnc32)[C@H](O)[C@@H]1O [Compound 336] | < 6.30
C[C@H]1O[C@@H](n2cnc3c(C4CCc5ccc([N+](=O)[O-])cc5C4)ncnc32)[C@H](O)[C@@H]1O (stereo partly drawn) [Compound 227] | < 6.30
C[C@H]1O[C@@H](n2cnc3c(OCCc4cnc(C#N)nc4)ncnc32)[C@H](O)[C@@H]1O [Compound 347] | < 6.30
C[C@H]1O[C@@H](n2cnc3c(COc4ccc(Cl)cc4)ncnc32)[C@H](O)[C@@H]1O [Compound 285] | < 6.30
C[C@H]1O[C@@H](n2cnc3c(OCCc4cccc([N+](=O)[O-])c4)ncnc32)[C@H](O)[C@@H]1O [Compound 275] | < 6.30
C[C@H]1O[C@@H](n2c(NCC3CC(F)(F)C3)nc3c(OCc4ccc(C#N)cc4)ncnc32)[C@H](O)[C@@H]1O [Compound 104] | 7.70 to 9.00
C[C@H]1O[C@@H](n2cnc3c(NCc4ccc(-c5ncon5)cc4)ncnc32)[C@H](O)[C@@H]1O [Compound 255] | < 6.30
C[C@H]1O[C@@H](n2cnc3c(SCc4cccnn4)ncnc32)[C@H](O)[C@@H]1O [Compound 393] | < 6.30
C[C@H]1O[C@@H](n2c(NC3CCC(O)CC3)nc3c(OCc4ccc(C#N)cc4)ncnc32)[C@H](O)[C@@H]1O (stereo partly drawn) [Compound 52] | > 9.00
Cc1cc(CSc2ncnc3c2ncn3[C@@H]2O[C@H](C)[C@@H](O)[C@H]2O)cc(C)c1F [Compound 272] | < 6.30
C[C@H]1O[C@@H](n2cnc3c(OCCc4ccc(C(F)F)cc4)ncnc32)[C@H](O)[C@@H]1O [Compound 267] | < 6.30
C[C@H]1O[C@@H](n2cnc3c(OCc4ccc(C#N)cc4)nc(Cl)nc32)[C@H](O)[C@@H]1O [Compound 244] | < 6.30
C[C@H]1O[C@@H](n2cnc3c(NS(=O)(=O)Cc4ccc([N+](=O)[O-])cc4)ncnc32)[C@H](O)[C@@H]1O [Compound 407] | < 6.30
C[C@H]1O[C@@H](n2c(N[C@H]3CC[C@@](C)(O)CC3)nc3c(OCc4ccc(C(F)(F)F)cc4)ncnc32)[C@H](O)[C@@H]1O [Compound 126] | 7.70 to 9.00
C[C@H]1O[C@@H](n2c(NCCCS(C)(=O)=O)nc3c(OCc4ccc([N+](=O)[O-])cc4)ncnc32)[C@H](O)[C@@H]1O [Compound 60] | 7.70 to 9.00
O=[N+]([O-])c1ccc(COc2ncnc3c2ncn3[C@H]2C[C@H](O)[C@@H](CO)O2)cc1 [Compound 405] | < 6.30
C[C@H]1O[C@@H](n2cnc3c(OCc4c(F)cc(C#N)cc4F)ncnc32)[C@H](O)[C@@H]1O [Compound 269] | < 6.30
CCOC(=O)CC[C@H]1O[C@@H](n2cnc3c(OCc4ccc([N+](=O)[O-])cc4)ncnc32)[C@H](O)[C@@H]1O [Compound 219] | < 6.30
C[C@H]1O[C@@H](n2cnc3c(OCc4ccc(-c5ccn(C)n5)cc4)ncnc32)[C@H](O)[C@@H]1O [Compound 383] | < 6.30
C[C@H]1O[C@@H](n2c(NCCO)nc3c(N4CCc5ccc(C#N)cc5C4)ncnc32)[C@H](O)[C@@H]1O [Compound 167] | 6.30 to 7.70

Structure (SMILES) | pIC50
C[C@H]1O[C@@H](n2c(NCCOc3ccccc3)nc3c(OCc4ccc(OC(F)F)cc4)ncnc32)[C@H](O)[C@@H]1O [Compound 7] | 7.70 to 9.00
C[C@H]1O[C@@H](n2cnc3c(COCc4ccccc4)ncnc32)[C@H](O)[C@@H]1O [Compound 399] | < 6.30
Cc1nc(OCc2ccc([N+](=O)[O-])cc2)c2ncn([C@@H]3O[C@H](C)[C@@H](O)[C@H]3O)c2n1 [Compound 259] | < 6.30
COc1ncc(CNc2nc3c(OCc4ccc(C#N)cc4)ncnc3n2[C@@H]2O[C@H](C)[C@@H](O)[C@H]2O)cn1 [Compound 72] | 7.70 to 9.00
CCOc1ccc(CNC(=O)c2ncnc3c2ncn3[C@@H]2O[C@H](C)[C@@H](O)[C@H]2O)cc1 [Compound 350] | < 6.30
C[C@H]1O[C@@H](n2c(NC3CCC(O)C3)nc3c(OCc4ccc(F)cc4)ncnc32)[C@H](O)[C@@H]1O (stereo partly drawn) [Compound 102] | 7.70 to 9.00
C[C@H]1O[C@@H](n2cnc3c(OCCc4ccc(C#N)cc4)ncnc32)[C@H](O)[C@@H]1O [Compound 249] | < 6.30
C[C@H]1O[C@@H](n2cnc3c(OCCc4ccc(C#N)nc4)ncnc32)[C@H](O)[C@@H]1O [Compound 319] | < 6.30
O=[N+]([O-])c1ccc(COc2ncnc3c2ncn3[C@@H]2O[C@H](CO)[C@@H](O)C2(F)F)cc1 [Compound 220] | < 6.30
C[C@H]1O[C@@H](n2cnc3c(C(=O)N4CCCC4c4ccccc4)ncnc32)[C@H](O)[C@@H]1O (stereo partly drawn) [Compound 253] | < 6.30
C[C@H]1O[C@@H](n2cnc3c(OCCc4ccc(OCF)cc4)ncnc32)[C@H](O)[C@@H]1O [Compound 343] | < 6.30
CC(CCO)Nc1nc2c(OCc3ccc(C(F)(F)F)cc3)ncnc2n1[C@@H]1O[C@H](C)[C@@H](O)[C@H]1O (stereo partly drawn) [Compound 96] | 7.70 to 9.00
C[C@H]1O[C@@H](n2cnc3c(CCc4ccc([N+](=O)[O-])cc4)ncnc32)[C@H](O)[C@@H]1O [Compound 210] | 6.30 to 7.70
C[C@H]1O[C@@H](n2c(NCCCS(C)(=O)=O)nc3c(N4CCc5ccc([N+](=O)[O-])cc5C4)ncnc32)[C@H](O)[C@@H]1O [Compound 143] | > 9.00
C[C@H]1O[C@@H](n2c(NC3CCS(=O)(=O)CC3)nc3c(N4CCc5ccc([N+](=O)[O-])cc5C4)ncnc32)[C@H](O)[C@@H]1O [Compound 136] | > 9.00
C[C@H]1O[C@@H](n2cnc3c(=O)n(Cc4ccc([N+](=O)[O-])cc4)ccc32)[C@H](O)[C@@H]1O [Compound 415] | < 6.30
C[C@H]1O[C@@H](n2cnc3c(OCCc4ccc(OC(F)(F)F)nc4)ncnc32)[C@H](O)[C@@H]1O [Compound 349] | < 6.30
CC(NC(=O)c1ncnc2c1ncn2[C@@H]1O[C@H](C)[C@@H](O)[C@H]1O)c1ccc([N+](=O)[O-])cc1 (stereo partly drawn) [Compound 305] | < 6.30
C[C@H]1O[C@@H](n2cnc3c(C(=O)NCc4ccc(OC(F)(F)F)cc4)ncnc32)[C@H](O)[C@@H]1O [Compound 295] | < 6.30
C[C@H]1O[C@@H](n2cnc3c(OCCc4cnc(OCF)nc4)ncnc32)[C@H](O)[C@@H]1O [Compound 356] | < 6.30

Structure (SMILES) | pIC50
C[C@H]1O[C@@H](n2cnc3c(OCCc4cnc(CF)nc4)ncnc32)[C@H](O)[C@@H]1O [Compound 403] | < 6.30
C[C@H]1O[C@H](n2cnc3c(OCc4ccc(C#N)c(F)c4)nc(Cl)nc32)[C@H](O)[C@@H]1O [Compound 237] | < 6.30
C[C@H]1O[C@@H](n2cnc3c(SCc4nc5ccccc5o4)ncnc32)[C@H](O)[C@@H]1O [Compound 392] | < 6.30
C[C@H]1O[C@@H](n2c(NCC3CCC(F)(F)CC3)nc3c(OCc4ccc(C#N)cc4)ncnc32)[C@H](O)[C@@H]1O [Compound 106] | 7.70 to 9.00
C[C@H]1O[C@@H](n2c(NC3CCCC3)nc3c(OCc4ccc(C(F)F)cc4)ncnc32)[C@H](O)[C@@H]1O [Compound 94] | 7.70 to 9.00
C[C@H]1O[C@@H](n2cnc3c(OCCc4ccc(S(C)(=O)=O)cc4)ncnc32)[C@H](O)[C@@H]1O [Compound 344] | < 6.30
C[C@H]1O[C@@H](n2c(NCC3CCOCC3)nc3c(OCc4ccc(Cl)cc4)ncnc32)[C@H](O)[C@@H]1O [Compound 111] | 6.30 to 7.70
C[C@H]1O[C@@H](n2c(NCCCO)nc3c(N4CCc5ccc(C#N)cc5C4)ncnc32)[C@H](O)[C@@H]1O [Compound 155] | 7.70 to 9.00
C[C@H]1C[C@@H](n2cnc3c(SCc4ccc([N+](=O)[O-])cc4)ncnc32)[C@H](O)[C@@H]1O [Compound 214] | 6.30 to 7.70
C[C@H]1O[C@@H](n2c(N[C@H]3CCC(F)(F)C3)nc3c(OCc4ccc([N+](=O)[O-])cc4)ncnc32)[C@H](O)[C@@H]1O [Compound 84] | > 9.00
C[C@H]1O[C@@H](n2cnc3c(SCc4cnc(C(F)(F)F)nc4)ncnc32)[C@H](O)[C@@H]1O [Compound 311] | < 6.30
C[C@H]1O[C@@H](n2c(NC3CCCC3)nc3c(OCc4ccc(Cl)cc4)ncnc32)[C@H](O)[C@@H]1O [Compound 91] | 7.70 to 9.00
C[C@H]1O[C@@H](n2cnc3c(OCc4cccc(C(F)(F)F)c4)ncnc32)[C@H](O)[C@@H]1O [Compound 274] | < 6.30
C[C@H]1O[C@@H](n2cnc3c(COc4ccc(OC(F)(F)F)cc4)ncnc32)[C@H](O)[C@@H]1O [Compound 288] | < 6.30
COc1ccc(COc2ncnc3c2ncn3[C@@H]2O[C@H](C)[C@@H](O)[C@H]2O)cc1OC1CCCC1 [Compound 346] | < 6.30
C[C@H]1O[C@@H](n2c(N[C@H]3CC[C@@](C)(O)CC3)nc3c(OCc4ccc(Cl)cc4)ncnc32)[C@H](O)[C@@H]1O [Compound 128] | 7.70 to 9.00
CC(C)Oc1cccc(CSc2ncnc3c2ncn3[C@@H]2O[C@H](C)[C@@H](O)[C@H]2O)c1 [Compound 365] | < 6.30
C[C@H]1O[C@@H](n2cnc3c(C(=O)NCc4ccc(Cl)cc4)ncnc32)[C@H](O)[C@@H]1O [Compound 353] | < 6.30
Cc1ccc(COc2ncnc3c2nc(NC2CCCC2)n3[C@@H]2O[C@H](C)[C@@H](O)[C@H]2O)cc1 [Compound 90] | 7.70 to 9.00
C[C@H]1O[C@@H](n2cnc3c(NCc4ccc(NS(C)(=O)=O)cc4)ncnc32)[C@H](O)[C@@H]1O [Compound 261] | < 6.30
